This note sets out measurements from patent publication US20220033448A1, “METHODS FOR AGGREGATION OF PROTEINS” (priority 2011, published 2022).

One data set deals with S. aureus. It counts as cell-based, Staphylococcus aureus.
A further data set deals with E. coli. The settings on record: E. coli ATCC25922; planktonic bacteria; read-out after 18 hours of growth.
Another data set relates to E. faecalis. The settings on record: E. faecalis ATCC 19433; planktonic; 18 hours.
The subject of the next data set is Nocardia asteroides. Particulars: Nocardia asteroides ATCC 3308; planktonic; 18 hours.
Data set [1] relates to Human embryonic kidney (HEK293T) cells. The settings on record: 50 μg/ml (C30: 50 μg/ml or beyond).
Data set [2] relates to human embryonic kidney cells (HEK293T cell line). The settings on record: concentrations lower than 100 μg/ml; HEK293T.
Source text: Alamar blue assay allowed monitoring of the total percentage of cell growth recovery in time in the presence of peptides.
Another data set concerns Ps. aeruginosa ATCC27853. In words: MIC, microbroth dilution. Particulars: planktonic, 18 hours.
Another data set deals with S. haemolyticus. In words: MIC, microbroth dilution. The settings on record: planktonic, 18 hours.
Data set [3] has as its system Listeria monocytogenes ATCC 11994. Nature of the data set: MIC, microbroth dilution. Particulars: planktonic, 18 hours. For orientation: Dilution methods test growth across graded concentrations, often in twofold steps.
Procedure: (§2) Bacteria were grown in a shaking incubator at 37° C. and 160rpm in 50 ml BHI , using individual colonies retrieved from a fresh overnight TSA-sheep blood plate. The cultures were grown to a density of approximately 1×10^8cells/ml and then diluted to 5×10^5 cells/ml in CAMHB (Mc Farland 0.5). Each well contained 100p.I (50p.I of peptide containing MHB plus 50 μl inoculum). The final cell density was 1×10^5 to 5×10^5/ml. After addition of the cell suspension, plates were incubated at 37° C. for 18 to 24 hours. The optical density at 590 nm (OD590) of each well was measured after 5 seconds of shaking the plate using Perkin Elmer spectrophotometer (1420 Multilabel Counter Vicotr 3). […] Each well, where no growth was observed, was also plated on TSA-sheep blood agar plates, incubated at 37° C. overnight and visually inspected.
The test system of data set [4] is Candida albicans SC5314. Nature of the data set: C. albicans SC5314 adhesion on 96-well polystyrene plates (XTT reduction assay). It counts as cell-based. The settings on record: 90 min adhesion at 37° C. How it is done: In a next step, lower concentrations of peptide F9 (50 μM, 10 μM and 2.5 μM) were also tested. First, we elucidated the effect of peptide F9 during the period of adhesion (90 min at 37° C.). Then, we tested its effect on further biofilm development, by changing the medium with fresh RPMI1640-MOPS, in the absence of peptide for 48 h. Both assays were performed in 96-well polystyrene plates and quantified by the XTT reduction assay (see material and methods section).
(§1) In vitro C. albicans biofilm was studied on three different types of biomaterials, namely flat bottom 96-well polystyrene plate (Greiner Bio-One, Germany), silicone (CS Hyde, USA) and polyurethane triple lumen intravenous catheters (2.4mm diameter) (Arrow International Reading, USA). […] After that, the biofilms were washed twice with 1×PBS and quantified.
The metabolic activity of Candida cells within in vitro biofilms was studied using the XTT reduction assay. This method is based on colorimetric change of a specific substrate—XTT (2,3-bis(2-methoxy-4-nitro-5-sulpho-phenyl)-2H-tetrazolium-5-carboxanilide) (Sigma, USA) which is reduced to XTT formazan by mitochondrial dehydrogenases of metabolic active cells measured by spectrophotometer at 490 nm. […] The intensity of colorimetric change was measured by spectrophotometer (Spectra max Plus 384) at 490 nm. […]
(In general: Tetrazolium assays rely on reduction of a dye to a coloured formazan, in cell work by metabolically active cells.)

The test system of data set [5] is Candida albicans SC5314. Nature of the data set: In vitro mature C. albicans biofilm formation on polystyrene (XTT reduction assay). It counts as cell-based. The settings on record: 250 μM, 50 μM and 10 μM; peptide during adhesion only or during whole biofilm development; p<0.001. As for the experimental part:
The initial screening and search for optimal Als3 candidate interferors was based on the C. albicans SC5314 adhesion assay on 96-well polystyrene plates upon administration of all the peptides at three different concentrations (250 μM, 50 μM and 10 μM). Based on the results obtained with this adhesion assay, we also tested the effect of peptides on mature biofilm development. The final election of the most optimal candidate interferor peptides was based on the results showing reduction in adhesion and mature biofilm formation caused by the lowest concentration of the peptide tested (10 μM or 2.5 μM).
In a next step, lower concentrations of peptide F9 (50 μM, 10 μM and 2.5 μM) were also tested. […] Both assays were performed in 96-well polystyrene plates and quantified by the XTT reduction assay (see material and methods section).
as §1
The metabolic activity of Candida cells within in vitro biofilms was studied using the XTT reduction assay. […] The intensity of colorimetric change was measured by spectrophotometer (Spectra max Plus 384) at 490 nm. […]

The test system of data set [6] is Candida albicans SC5314. In words: Invasion of C. albicans SC5314 into epithelial cell line TR-146. It counts as cell-based. Particulars: invasion 3 h. As for the experimental part:
As discussed herein before, C. albicans Als3 also plays a role in adherence and invasion to epithelial and endothelial cells. […] Here we investigated the effect of external application of interferor peptide F9 on C. albicans SC5314 adherence and invasion to epithelial cells. Thereto, Candida cells were incubated together with the human cells (epithelial cell line TR-146) in the presence of peptide F9 during adhesion (1 h) or invasion (3 h). The amount of adhered and internalized cells was determined by counting using epifluorescence.
The monolayers of TR-146 cell lines were infected with Candida cells as previously described in 6.2.15. After 3 h incubation period of monolayers with Candida cells at 37° C., 5% CO2, the medium above the epithelial cells was aspirated and the monolayers were rinsed three times with 1× PBS to remove fungal cells which were not associated with epithelial cells. Next, the epithelial cells were fixed with 4% Histofix (Roth) for 20 min at 37° C. All fungal cells remaining adherent to the surface were stained for 1 h with a rabbit anti-C. albicans polyclonal antibody (Acris Antibodies, Germany) (dilution 1:2000) and counterstained with a secondary anti-rabbit IgG conjugated with Alexa Fluor 488 (Invitrogen) (dilution 1:5000). After extensive rinsing with 1× PBS, the cells were permeabilized in 0.5% Triton X-100 in water for 5 min. Further, adherent and invading parts of fungal cells within epithelial cells were stained with calcofluor white (dilution 1:100) for 15 min and washed three times with water, for 10 min at 30° C., 180 rpm. Coverslips were mounted inverted onto glass slides and the stained cells were visualized with epifluorescence using a filter set to detect calcofluor white (filter for DAPI) and Alexa Fluor 488 (Leica DFC350 FX, Mannheim, Germany). The percentage of invading C. albicans cells was determined by dividing the number of internalized cells by the total number of adherent cells. At least 100 fungal cells were counted on each coverslip.

No end group written: not given here.

Procedure for E. coli: as §2
(§3) A microbroth dilution method was used with twofold serial dilutions in CAMHB (according to EMEA guidelines) was used for screening of peptide activity, with concentrations ranging from 0.3 μg/mIto 200 μg/ml.
Procedure for E. faecalis: as §2, §3
Procedure for Nocardia asteroides: as §2, §3
Procedure for Ps. aeruginosa ATCC27853: as §2
Procedure for S. haemolyticus: as §2

RILLGLIRRGSRILLGLIRR [C30]: in the data set with S. aureus (S. aureus ATCC, broth microdilution, 4 duplicates), the “onset of resistance compared with common antibiotics” value is recorded as “much slower onset of resistance than Ampicillin”. The “fold elevation of the MIC” value in the data set on S. aureus (S. aureus clinical strain MRSA 204, passaged at half the MIC over 15 days) came out at 2 fold. Further, the MIC entry is given as “E. coli ATCC25922: 100 μg/ml” in the data set with E. coli; “E. faecalis ATCC 19433: 6 μg/ml” in the data set with E. faecalis; “Nocardia asteroides ATCC 3308: 1.5 μg/ml” with Nocardia asteroides; “Ps. aeruginosa ATCC27853: >100 μg/ml” in the data set with Ps. aeruginosa ATCC27853; “S. haemolyticus: 1.5 μg/ml” in the data set on S. haemolyticus; “Listeria monocytogenes ATCC 11994: 1.5 μg/ml” in data set [3]. Besides, the LDH release result in [1] is listed as “higher than 50%”. In addition, in data set [2], the “viability of mammalian cells” value is recorded as “viability of mammalian cells is not significantly affected”.

Regarding RKLLFNLGSRNGIVIVATTR [F9], the “adhesion of C. albicans SC5314 on polystyrene” value with Candida albicans SC5314 [4] (2.5 μM peptide) is recorded as “dramatically decreased adhesion properties of Candida cells”; in the data set on Candida albicans SC5314 [4] (50 μM and 10 μM peptide), “almost completely abolished Candida attachment”. Moreover, the “biofilm formation (metabolic activity compared to control)” value in the data set on Candida albicans SC5314 [5] was “significant reduction in biofilm formation”. Moreover, the “effect on invasion of epithelial cells” value in the data set with Candida albicans SC5314 [6] (2.5 μM) is given as “did not have any effect on invasion”. Besides, the “decrease of invasion of epithelial cells” value in the data set on Candida albicans SC5314 [6] (10 μM) came out at 15%; with Candida albicans SC5314 [6] (50 μM) it was 34%.
